Legend:
LoVo = test: cells; settings: Homo sapiens
COLO 205 = test: cells; settings: Homo sapiens
[1] = target: Platelet-derived growth factor receptor beta (Homo sapiens) (UniProt P09619); test: Inhibition of PDGFRbeta (unknown origin) assessed as residual activity at 1 uM by kinome scan assay relative to control
[2] = target: T1, Tyrosine-protein kinase ABL1 (Homo sapiens, UniProt P00519); test: Inhibition of ABL (unknown origin) assessed as residual activity at 1 uM by kinome scan assay relative to control
HCT-116 = test: cells; settings: Homo sapiens
[3] = Metabolic stability in human liver microsomes assessed as intrinsic clearance at 1 uM measured upto 45 mins in presence of NADPH by LC-MS/MS analysis; type: ADME, Microsome; settings: read-out: CLH
BaF3 [4] = test: cells; settings: Mus musculus, BaF3, 72 h
[5] = Cytotoxicity against human FHC cells assessed as cell growth inhibition by MTT assay; type: toxicity, cell-based
MKN-45 = test: cells; settings: Homo sapiens
[6] = target: T2, Proto-oncogene tyrosine-protein kinase receptor Ret (Homo sapiens, UniProt P07949); test: Inhibition of RET (unknown origin) by kinome scan assay
[7] = target: T2, Proto-oncogene tyrosine-protein kinase receptor Ret; test: Inhibition of RET (unknown origin) assessed as residual activity at 1 uM by kinome scan assay relative to control
EBC-1 = test: cells; settings: Homo sapiens
[8] = Metabolic stability in human liver microsomes assessed as parent compound remaining at 1 uM measured after 45 mins in presence of NADPH by LC-MS/MS analysis; type: ADME, Microsome; settings: read-out: Stability
[9] = target: T1, Tyrosine-protein kinase ABL1; test: Inhibition of ABL (unknown origin) by kinome scan assay
cells = settings: Homo sapiens, TT
[10] = Metabolic stability in human liver microsomes assessed as half life at 1 uM measured upto 45 mins in presence of NADPH by LC-MS/MS analysis; type: ADME, Microsome
NCI-H1993 = test: cells; settings: Homo sapiens
SNU-5 = test: cells; settings: Homo sapiens
HT-29 = test: cells; settings: Homo sapiens
BaF3 [11] = test: cells; settings: Mus musculus, BaF3, 72 h; remark: listed apart in the source
[12] = target: Hepatocyte growth factor receptor (Homo sapiens, UniProt P08581); test: Inhibition of c-Met (unknown origin)
Sequence of Hepatocyte growth factor receptor (P08581 whole entry): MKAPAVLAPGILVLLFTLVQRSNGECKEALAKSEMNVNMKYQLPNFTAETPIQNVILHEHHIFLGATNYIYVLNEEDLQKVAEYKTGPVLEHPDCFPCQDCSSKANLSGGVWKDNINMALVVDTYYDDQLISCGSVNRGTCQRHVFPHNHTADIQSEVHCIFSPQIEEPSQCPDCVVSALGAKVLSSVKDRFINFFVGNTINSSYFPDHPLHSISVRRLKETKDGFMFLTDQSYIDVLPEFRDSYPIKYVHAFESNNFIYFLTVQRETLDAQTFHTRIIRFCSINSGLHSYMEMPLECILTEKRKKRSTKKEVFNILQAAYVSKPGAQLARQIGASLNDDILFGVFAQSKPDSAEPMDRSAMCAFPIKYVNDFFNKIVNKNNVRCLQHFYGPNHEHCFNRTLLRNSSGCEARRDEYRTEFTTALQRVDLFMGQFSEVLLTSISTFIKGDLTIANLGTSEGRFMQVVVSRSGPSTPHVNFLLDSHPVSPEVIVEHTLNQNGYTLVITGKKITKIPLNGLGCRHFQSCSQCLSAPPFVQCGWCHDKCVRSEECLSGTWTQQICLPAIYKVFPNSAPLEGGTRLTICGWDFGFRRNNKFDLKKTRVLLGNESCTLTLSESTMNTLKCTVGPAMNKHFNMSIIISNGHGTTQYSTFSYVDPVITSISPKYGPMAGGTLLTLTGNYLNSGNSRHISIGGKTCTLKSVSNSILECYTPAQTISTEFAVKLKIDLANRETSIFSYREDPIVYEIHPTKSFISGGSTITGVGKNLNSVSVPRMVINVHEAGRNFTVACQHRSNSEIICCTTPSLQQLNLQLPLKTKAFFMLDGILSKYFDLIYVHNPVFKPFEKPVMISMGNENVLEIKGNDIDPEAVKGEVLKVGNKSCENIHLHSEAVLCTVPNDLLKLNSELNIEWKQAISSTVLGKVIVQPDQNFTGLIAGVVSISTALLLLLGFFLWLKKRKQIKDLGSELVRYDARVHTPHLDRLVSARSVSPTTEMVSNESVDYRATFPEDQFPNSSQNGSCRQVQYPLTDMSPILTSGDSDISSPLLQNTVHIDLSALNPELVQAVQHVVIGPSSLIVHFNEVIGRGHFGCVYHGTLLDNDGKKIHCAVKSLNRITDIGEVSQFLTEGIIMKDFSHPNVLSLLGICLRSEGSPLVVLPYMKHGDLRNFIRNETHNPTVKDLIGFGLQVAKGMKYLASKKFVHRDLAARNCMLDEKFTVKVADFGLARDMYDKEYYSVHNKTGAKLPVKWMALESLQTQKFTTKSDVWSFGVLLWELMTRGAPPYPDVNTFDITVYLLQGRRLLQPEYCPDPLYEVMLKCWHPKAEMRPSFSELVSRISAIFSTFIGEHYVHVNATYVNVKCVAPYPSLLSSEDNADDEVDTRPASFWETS

T1 sequence (P00519 whole entry): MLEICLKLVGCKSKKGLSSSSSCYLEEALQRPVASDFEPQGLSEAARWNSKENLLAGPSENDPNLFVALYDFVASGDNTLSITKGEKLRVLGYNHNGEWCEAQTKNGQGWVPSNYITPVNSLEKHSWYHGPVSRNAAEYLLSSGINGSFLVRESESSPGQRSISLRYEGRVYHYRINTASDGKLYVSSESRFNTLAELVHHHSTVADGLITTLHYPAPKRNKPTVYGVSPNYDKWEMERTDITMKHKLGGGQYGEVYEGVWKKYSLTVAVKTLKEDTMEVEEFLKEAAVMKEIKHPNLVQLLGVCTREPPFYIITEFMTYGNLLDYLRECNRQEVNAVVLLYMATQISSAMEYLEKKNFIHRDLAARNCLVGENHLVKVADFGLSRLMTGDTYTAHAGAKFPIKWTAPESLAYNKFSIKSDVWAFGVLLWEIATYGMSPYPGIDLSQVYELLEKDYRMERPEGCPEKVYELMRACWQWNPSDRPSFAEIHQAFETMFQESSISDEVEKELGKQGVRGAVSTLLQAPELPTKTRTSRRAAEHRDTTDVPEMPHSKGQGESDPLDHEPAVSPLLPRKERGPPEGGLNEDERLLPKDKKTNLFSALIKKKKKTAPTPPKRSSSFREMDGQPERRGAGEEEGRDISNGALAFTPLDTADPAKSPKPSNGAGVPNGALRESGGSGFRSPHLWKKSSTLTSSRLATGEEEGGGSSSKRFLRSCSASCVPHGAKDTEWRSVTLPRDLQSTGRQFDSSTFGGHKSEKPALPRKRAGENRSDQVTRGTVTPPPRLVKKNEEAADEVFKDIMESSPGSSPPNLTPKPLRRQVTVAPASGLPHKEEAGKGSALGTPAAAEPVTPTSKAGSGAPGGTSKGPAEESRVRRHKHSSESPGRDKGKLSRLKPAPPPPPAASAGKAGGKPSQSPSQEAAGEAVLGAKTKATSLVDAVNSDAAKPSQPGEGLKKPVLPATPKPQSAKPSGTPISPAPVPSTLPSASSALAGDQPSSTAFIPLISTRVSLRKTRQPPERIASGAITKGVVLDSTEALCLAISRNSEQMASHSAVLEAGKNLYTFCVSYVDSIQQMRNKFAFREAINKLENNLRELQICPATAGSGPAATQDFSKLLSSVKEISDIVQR
T2 sequence (P07949 whole entry): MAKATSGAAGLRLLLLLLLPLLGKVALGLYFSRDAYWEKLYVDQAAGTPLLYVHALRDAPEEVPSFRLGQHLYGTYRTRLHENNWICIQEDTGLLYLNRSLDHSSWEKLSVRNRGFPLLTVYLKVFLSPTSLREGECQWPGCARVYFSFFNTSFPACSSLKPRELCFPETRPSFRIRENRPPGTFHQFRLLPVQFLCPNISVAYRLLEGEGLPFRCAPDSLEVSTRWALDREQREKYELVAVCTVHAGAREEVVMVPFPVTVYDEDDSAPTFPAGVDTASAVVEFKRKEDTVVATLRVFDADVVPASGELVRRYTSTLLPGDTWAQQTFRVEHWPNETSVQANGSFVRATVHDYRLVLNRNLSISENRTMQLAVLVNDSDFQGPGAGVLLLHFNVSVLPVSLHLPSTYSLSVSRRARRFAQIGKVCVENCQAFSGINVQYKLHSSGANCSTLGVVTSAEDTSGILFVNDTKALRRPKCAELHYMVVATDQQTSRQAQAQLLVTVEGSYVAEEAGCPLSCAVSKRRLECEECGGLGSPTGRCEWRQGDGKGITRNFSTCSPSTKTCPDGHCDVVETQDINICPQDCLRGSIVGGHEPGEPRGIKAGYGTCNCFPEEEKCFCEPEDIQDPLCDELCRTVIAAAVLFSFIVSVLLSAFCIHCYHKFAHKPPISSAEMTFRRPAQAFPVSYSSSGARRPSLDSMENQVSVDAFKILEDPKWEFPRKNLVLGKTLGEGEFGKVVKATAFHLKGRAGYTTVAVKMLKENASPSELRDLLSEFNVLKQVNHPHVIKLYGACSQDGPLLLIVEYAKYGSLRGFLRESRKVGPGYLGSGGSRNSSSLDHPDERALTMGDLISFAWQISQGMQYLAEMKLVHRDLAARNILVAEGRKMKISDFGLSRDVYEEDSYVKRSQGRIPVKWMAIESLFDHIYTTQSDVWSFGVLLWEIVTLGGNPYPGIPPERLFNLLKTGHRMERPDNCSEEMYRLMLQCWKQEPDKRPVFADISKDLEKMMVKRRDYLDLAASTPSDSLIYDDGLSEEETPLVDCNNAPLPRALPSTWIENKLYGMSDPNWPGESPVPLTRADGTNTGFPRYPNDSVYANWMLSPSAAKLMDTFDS
Sequence of Platelet-derived growth factor receptor beta (Homo sapiens) (P09619 whole entry): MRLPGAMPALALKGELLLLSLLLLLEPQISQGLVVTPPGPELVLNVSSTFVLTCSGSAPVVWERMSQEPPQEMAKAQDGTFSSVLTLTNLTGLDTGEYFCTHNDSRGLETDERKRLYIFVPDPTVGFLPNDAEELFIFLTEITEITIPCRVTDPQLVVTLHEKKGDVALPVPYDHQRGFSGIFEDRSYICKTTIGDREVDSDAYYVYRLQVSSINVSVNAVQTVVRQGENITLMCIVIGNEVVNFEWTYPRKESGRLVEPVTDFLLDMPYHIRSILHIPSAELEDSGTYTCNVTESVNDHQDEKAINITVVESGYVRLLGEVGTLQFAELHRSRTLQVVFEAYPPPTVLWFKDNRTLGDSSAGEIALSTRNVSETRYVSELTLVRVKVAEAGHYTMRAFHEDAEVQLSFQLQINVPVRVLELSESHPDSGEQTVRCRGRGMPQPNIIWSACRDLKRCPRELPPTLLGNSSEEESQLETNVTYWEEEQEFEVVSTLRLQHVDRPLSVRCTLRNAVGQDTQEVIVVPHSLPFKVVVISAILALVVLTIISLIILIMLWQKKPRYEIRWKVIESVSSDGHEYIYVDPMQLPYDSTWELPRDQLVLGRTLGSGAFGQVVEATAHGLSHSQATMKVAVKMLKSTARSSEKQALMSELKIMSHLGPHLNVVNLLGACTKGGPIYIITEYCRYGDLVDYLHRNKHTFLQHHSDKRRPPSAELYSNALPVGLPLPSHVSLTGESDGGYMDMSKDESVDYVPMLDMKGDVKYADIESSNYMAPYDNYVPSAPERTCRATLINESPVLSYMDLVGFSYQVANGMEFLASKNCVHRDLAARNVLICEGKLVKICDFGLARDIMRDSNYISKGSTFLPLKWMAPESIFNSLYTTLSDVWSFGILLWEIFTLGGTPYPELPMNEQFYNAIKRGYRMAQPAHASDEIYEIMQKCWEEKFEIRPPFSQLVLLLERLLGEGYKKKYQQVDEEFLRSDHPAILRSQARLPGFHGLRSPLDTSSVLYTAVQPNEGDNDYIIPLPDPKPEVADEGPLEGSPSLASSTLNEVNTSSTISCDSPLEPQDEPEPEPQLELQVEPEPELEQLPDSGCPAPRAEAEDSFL

SMILES	IC50 (LoVo) [nM]	IC50 (COLO 205) [nM]	IC50 (HCT-116) [nM]	CLint scaled at 1 µM [3] [mL/min/kg]	IC50 (BaF3 [4]) [nM]	remaining at 0.75 h, 1 µM [8] [%]	half-life at 1 µM [10] [h]	IC50 (HT-29) [nM]	IC50 (BaF3 [11]) [nM]	further results
CCN1CCN(CCCOc2cc3nccc(Oc4c(F)cc(NC(=O)NN5C(=O)CSC5c5ccc(F)cc5F)cc4F)c3cc2OC)CC1 (racemic)	1600	35	98	10.7	57	82	2.7	530		Activity [1]: 0.1%; Activity [2]: 0.25%; IC50 [5]: 4200 nM; IC50 (MKN-45): 380 nM; IC50 [6]: 27.9 nM; Activity [7]: 0.25%; IC50 (EBC-1): 150 nM; IC50 [9]: 145 nM; IC50 (cells): 780 nM; IC50 (NCI-H1993): 1500 nM; IC50 (SNU-5): 170 nM
CCN1CCN(CCCOc2cc3nccc(Oc4c(F)cc(NC(=O)NN5C(=O)CSC5c5c(F)cccc5F)cc4F)c3cc2OC)CC1 (stereo unspecified)	930	48	540	19.8	45	70.1	1.47	69	76	IC50 [5]: > 10000 nM; IC50 (MKN-45): 610 nM; IC50 (EBC-1): 160 nM; IC50 (cells): 2300 nM; IC50 (SNU-5): 270 nM
CCN(CC)CCCOc1cc2nccc(Oc3ccc(NC(=O)NN4C(=O)CSC4c4c(F)cccc4F)cc3C)c2cc1OC (stereo unspecified)			640		460			220	840	
CNC(=O)c1c(C)oc2cc(Oc3ncnc4cc(OC)c(OC)cc34)ccc12 [FRUQUINTINIB]	> 10000	> 10000	800					1500		
CCN1CCN(CCCOc2cc3nccc(Oc4c(F)cc(NC(=O)NN5C(=O)CSC5c5ccccc5F)cc4F)c3cc2OC)CC1 (stereo unspecified)	1300	63	140	13.3	53	78.2	2.17	110	88	IC50 [5]: > 10000 nM; IC50 (MKN-45): 2300 nM; IC50 (EBC-1): 230 nM; IC50 (NCI-H1993): 2300 nM; IC50 (SNU-5): 880 nM
CCN(CC)CCCOc1cc2nc(N)cc(Oc3ccc(NC(=O)NN4C(=O)CSC4c4c(F)cccc4F)cc3)c2cc1OC (stereo unspecified)					3300				> 10000	
CCN(CC)CCCOc1cc2nccc(Nc3ccc(NC(=O)NN4C(=O)CSC4c4c(F)cccc4F)cc3)c2cc1OC (stereo unspecified)			> 10000		2100			5500	4500	
CCN(CC)CCCOc1cc2nccc(Oc3ccc(C(=O)NN4C(=O)CSC4c4c(F)cccc4F)cc3)c2cc1OC (stereo unspecified)			3200		330			680	930	
O=c1ccc2ccc(O)cc2o1 [UMBELLIFERONE]				289		0.8	0.1			
COc1cc2c(Oc3ccc(NC(=O)NN4C(=O)CSC4c4c(F)cccc4F)cc3)ccnc2cc1OCCCN1CCCC1 (stereo unspecified)			810		66			160	150	
O=C(Nc1ccc(Oc2ccnc3c2CCN3)c(F)c1)c1c[nH]cc(-c2ccc(F)cc2)c1=O										IC50 [12]: 6 nM
C[C@]12CC[C@H]3[C@@H](CCC4=CC(=O)CC[C@@]43C)[C@@H]1CC[C@@H]2O [TESTOSTERONE]				164		8.1	0.177			
